From patent publication US20250170110A1, “LYMPHATIC TARGETED ANTI-COAGULANT FOR THE PREVENTION OF LYMPHATIC THROMBOSIS” (THE TRUSTEES OF THE UNIVERSITY OF PENNSYLVANIA, priority 2022, published 2025)

Test system: gut lymphatic clotting
Assay: lymphatic clots in mice with induced deletion of lymphatic endothelial thrombomodulin (THBD)
Assay type: in vivo
Conditions: oral warfarin in water, 3 weeks after induction
From the text: FIGS. 7A-7C show oral delivery of warfarin prevents lymphatic clots in mouse model of lymphothrombosis. […] P-values are indicated by asterisks as follows: ***p<0.001.
However, dosing with existing antithrombotic drugs will confer systemic anticoagulation, with established significant risks of bleeding throughout the body, including in the gut and brain. […] Therefore, there is a clear need for a functional antithrombotic drug that can be delivered and act preferentially to the gut lymphatics at a therapeutic dose. In addition, the volume of lymphatic fluid in the gut is much less than the volume of blood in the body, which means that a therapeutic dose of drug directly to the gut lymphatics will be massively diluted once it reaches the blood stream to well below therapeutic levels, thereby preventing systemic anticoagulation and inappropriate bleeding.

CC(=O)CC(c1ccccc1)c1c(O)c2ccccc2oc1=O (stereo not shown) [warfarin]
lymphatic clotting (fibrin positive lymphatic vessels): prevented lymphatic clotting
